Source: ChEMBL document CHEMBL3997783, “Synthesis and anti-acute myeloid leukemia activity of C-14 modified parthenolide derivatives” (Eur J Med Chem, 2017)

Legend:
[1] = test system: HL-60; assay: Cytotoxicity against human HL60 cells assessed as decrease in cell proliferation after 48 hrs by MTT assay; assay type: functional, cell-based; conditions: HL-60, 48 h
[2] = test system: KG-1a; assay: Cytotoxicity against human KG1a cells assessed as decrease in cell proliferation after 48 hrs by MTT assay; assay type: functional, cell-based
[3] = test system: KG-1a; assay: Induction of apoptosis in human KG1a cells assessed as necrotic cells at 10 uM after 16 hrs by annexin V-FITC/propidium iodide staining-based flow cytometric method (reference value: 0.170%); assay type: functional
[4] = test system: KG-1a; assay: Induction of apoptosis in human KG1a cells assessed as necrotic cells at 20 uM after 16 hrs by annexin V-FITC/propidium iodide staining-based flow cytometric method (reference value: 0.170%); assay type: functional
[5] = test system: KG-1a; assay: Induction of apoptosis in human KG1a cells assessed as viable cells at 10 uM after 16 hrs by annexin V-FITC/propidium iodide staining-based flow cytometric method (reference value: 98.7%); assay type: functional; conditions: read-out: Activity
[6] = test system: KG-1a; assay: Induction of apoptosis in human KG1a cells assessed as early apoptotic cells at 10 uM after 16 hrs by annexin V-FITC/propidium iodide staining-based flow cytometric method (reference value: 0.113%); assay type: functional
[7] = test system: KG-1a; assay: Induction of apoptosis in human KG1a cells assessed as early apoptotic cells at 20 uM after 16 hrs by annexin V-FITC/propidium iodide staining-based flow cytometric method (reference value: 0.113%); assay type: functional
[8] = test system: KG-1a; assay: Induction of apoptosis in human KG1a cells assessed as late apoptotic cells at 20 uM after 16 hrs by annexin V-FITC/propidium iodide staining-based flow cytometric method (reference value: 1.01%); assay type: functional
[9] = test system: KG-1a; assay: Induction of apoptosis in human KG1a cells assessed as late apoptotic cells at 10 uM after 16 hrs by annexin V-FITC/propidium iodide staining-based flow cytometric method (reference value: 1.01%); assay type: functional
[10] = test system: KG-1a; assay: Induction of apoptosis in human KG1a cells assessed as viable cells at 20 uM after 16 hrs by annexin V-FITC/propidium iodide staining-based flow cytometric method (reference value: 98.7%); assay type: functional; conditions: read-out: Activity
[11] = Selectivity ratio of IC50 for human KG1a cells to IC50 for human HL60 cells; assay type: functional

| SMILES | IC50 [1] | IC50 [2] | other results |
| --- | --- | --- | --- |
| C=C1C(=O)O[C@H]2[C@H]1CC/C(COC(=O)c1ccc(C(F)(F)F)cc1)=C\CC[C@@]1(C)O[C@@H]21 | 2.3 µM | 4 µM | – |
| C=C1C(=O)O[C@H]2[C@H]1CC/C(C(=O)N1CCN(C(=O)OC(C)(C)C)CC1)=C\CC[C@@]1(C)O[C@@H]21 | 5.1 µM | 1.7 µM | – |
| C=C1C(=O)O[C@H]2[C@H]1CC/C(C(=O)N1CCOCC1)=C\CC[C@@]1(C)O[C@@H]21 | 3.9 µM | 29.9 µM | – |
| C=C1C(=O)O[C@H]2[C@H]1CC/C(C(=O)N1CCCC1)=C\CC[C@@]1(C)O[C@@H]21 | 4 µM | 1.8 µM | – |
| C=C1C(=O)O[C@H]2[C@H]1CC/C(C(=O)OCc1ccccc1)=C\CC[C@@]1(C)O[C@@H]21 | 2.2 µM | 3.3 µM | – |
| C=C1C(=O)O[C@H]2[C@H]1CC/C(COC(=O)c1cccs1)=C\CC[C@@]1(C)O[C@@H]21 | 1.7 µM | 3.9 µM | – |
| C=C1C(=O)O[C@H]2[C@H]1CC/C(COC(=O)c1ccccc1C#N)=C\CC[C@@]1(C)O[C@@H]21 | 1.2 µM | 3.3 µM | – |
| C=C1C(=O)O[C@H]2[C@H]1CC/C(C(=O)N(CCC)CCC)=C\CC[C@@]1(C)O[C@@H]21 | 1 µM | 2 µM | – |
| C=C1C(=O)O[C@H]2[C@H]1CC/C(COCc1ccc(C(F)(F)F)cc1)=C\CC[C@@]1(C)O[C@@H]21 | 1.9 µM | 2.4 µM | – |
| C=C1C(=O)O[C@H]2[C@H]1CC/C(C(=O)N1CCC(C)CC1)=C\CC[C@@]1(C)O[C@@H]21 | 6.3 µM | 1.6 µM | – |
| C=C1C(=O)O[C@H]2[C@H]1CC/C(C(=O)N(C)C)=C\CC[C@@]1(C)O[C@@H]21 | 1.3 µM | 6.1 µM | – |
| C=C1C(=O)O[C@H]2[C@H]1CC/C(c1nc3ccccc3s1)=C\CC[C@@]1(C)O[C@@H]21 | 8.2 µM | 5.1 µM | – |
| C=C1C(=O)O[C@H]2[C@H]1CC/C(COC(=O)/C=C/C)=C\CC[C@@]1(C)O[C@@H]21 | 4.6 µM | 5.1 µM | – |
| C=C1C(=O)O[C@H]2[C@H]1CC/C(C(=O)N(CCCC)CCCC)=C\CC[C@@]1(C)O[C@@H]21 | 3.7 µM | 1.4 µM | – |
| C=C1C(=O)O[C@H]2[C@H]1CC/C(COCc1ccccc1)=C\CC[C@@]1(C)O[C@@H]21 | 3.5 µM | 4.8 µM | – |
| C=C1C(=O)O[C@H]2[C@H]1CC/C(C(=O)N(CC)CC)=C\CC[C@@]1(C)O[C@@H]21 | 2.7 µM | 4.3 µM | – |
| C=C1C(=O)O[C@H]2[C@H]1CC/C(COC(=O)c1ccccc1)=C\CC[C@@]1(C)O[C@@H]21 | 2.4 µM | 3.3 µM | – |
| C=C1C(=O)O[C@H]2[C@H]1CC/C(COCc1ccc(OC)cc1)=C\CC[C@@]1(C)O[C@@H]21 | 2.7 µM | 1.1 µM | – |

| SMILES | IC50 [1] | IC50 [2] | other results |
| --- | --- | --- | --- |
| C=C1C(=O)O[C@H]2[C@H]1CC/C(C(=O)N1CCC(c3ccccc3)CC1)=C\CC[C@@]1(C)O[C@@H]21 | 2.2 µM | 2.2 µM | – |
| C=C1C(=O)O[C@H]2[C@H]1CC/C(COC(=O)CCCCCC)=C\CC[C@@]1(C)O[C@@H]21 | 6 µM | 5.8 µM | – |
| C=C1C(=O)O[C@H]2[C@H]1CC/C(C(=O)O)=C\CC[C@@]1(C)O[C@@H]21 | > 50 µM | > 50 µM | – |
| C=C1C(=O)O[C@H]2[C@H]1CC/C(COC)=C\CC[C@@]1(C)O[C@@H]21 | 7.7 µM | 2.4 µM | – |
| C=C1C(=O)O[C@H]2[C@H]1CC/C(COC(=O)c1ccc(C#N)cc1)=C\CC[C@@]1(C)O[C@@H]21 | 1.7 µM | 6.7 µM | – |
| C=C1C(=O)O[C@H]2[C@H]1CC/C(COC(=O)/C=C/c1ccccc1)=C\CC[C@@]1(C)O[C@@H]21 | 1.1 µM | 0.4 µM | Activity [3]: 1.37%; Activity [4]: 1.61%; viability at 10 µM [5]: 75.6%; Activity [6]: 0.381%; Activity [7]: 0.087%; Activity [8]: 46.7%; Activity [9]: 22.7%; viability at 20 µM [10]: 51.6% |
| C=C1C(=O)O[C@H]2[C@H]1CC/C(C(=O)N1CCN(C(=O)/C3=C/CC[C@@]4(C)O[C@H]4[C@H]4OC(=O)C(=C)[C@@H]4CC3)CC1)=C\CC[C@@]1(C)O[C@@H]21 | > 50 µM | > 50 µM | – |
| C=C1C(=O)O[C@H]2[C@H]1CC/C(C(=O)N1CCNCC1)=C\CC[C@@]1(C)O[C@@H]21 | > 50 µM | > 50 µM | – |
| C=C1C(=O)O[C@H]2[C@H]1CC/C(C(=O)N1CCCCC1)=C\CC[C@@]1(C)O[C@@H]21 | 1.8 µM | 3.2 µM | – |
| C=C1C(=O)O[C@H]2[C@H]1CC/C(COC(C)=O)=C\CC[C@@]1(C)O[C@@H]21 | 2.8 µM | 6.3 µM | – |
| C=C1C(=O)O[C@H]2[C@H]1CC/C(C(=O)OCc1ccc(C(F)(F)F)cc1)=C\CC[C@@]1(C)O[C@@H]21 | 1 µM | 2 µM | – |
| C=C1C(=O)O[C@H]2[C@H]1CC/C(C(=O)OC)=C\CC[C@@]1(C)O[C@@H]21 | 4.9 µM | 5.4 µM | – |
| C=C1C(=O)O[C@H]2[C@H]1CC/C(COC(=O)C1CCCCC1)=C\CC[C@@]1(C)O[C@@H]21 | 6.7 µM | 8.6 µM | – |
| C=C1C(=O)O[C@H]2[C@H]1CC/C(COC(=O)c1ccc(OC)cc1)=C\CC[C@@]1(C)O[C@@H]21 | 2.1 µM | 5.3 µM | – |
| C=C1C(=O)O[C@@H]2C3O[C@]3(C)CC/C=C(\C)CC[C@@H]12 (some centres undefined) | 4.2 µM | 3.5 µM | Activity [3]: 0.327%; Activity [4]: 1.81%; viability at 10 µM [5]: 95.2%; Activity [6]: 0.413%; Activity [7]: 0.336%; Activity [8]: 13.1%; Activity [9]: 4.08%; viability at 20 µM [10]: 84.7% |
| C=C1C(=O)O[C@H]2[C@H]1CC/C(C=O)=C\CC[C@@]1(C)O[C@@H]21 | 9.9 µM | 6.3 µM | – |
| C=C1C(=O)O[C@H]2[C@H]1CC/C(CO)=C\CC[C@@]1(C)O[C@@H]21 | 10.3 µM | 6.8 µM | – |
| COc1cccc2c1C(=O)c1c(O)c3c(c(O)c1C2=O)C[C@@](O)(C(=O)CO)C[C@@H]3O[C@H]1C[C@H](N)[C@H](O)[C@H](C)O1.Cl [DOXORUBICIN HYDROCHLORIDE] | 0.019 µM | 0.08 µM | Ratio IC50 [11]: 4 |
